Reference: publication PMC8776730 (Nature Communications, 2022)

Key:
[1] = tested on: Recombinant Human Fibroblast Activation Protein-α (FAP-α); experiment: FAP-α in buffer: 50 mM Tris, 1 M NaCl, 1 mg/mL, BSA, pH 7.5; conditions: up to 12 h
[2] = tested on: MIA PaCa-2 cells; experiment: Transwell migration assay; assay type: cell-based; conditions: MIA PaCa-2, 150 μM, 24 h; blank control = 1
Procedure: (§1) Fig. 5 The BIVA effect with enhanced targeting to pancreatic tumor cell for boundaries imaging. a Illustration of BIVA effect: active targeting and assembly/aggregate induced retention (AIR) effect. b Chemical structure of FITC labeling. c 2D and 3D confocal images of M2 with active targeting property and M1 with BIVA effect on MIA PaCa-2 cells after incubation for 1 h. d The distribution of M1 on MIA PaCa-2 cell. e ThT staining of the lysed cell membrane of MIA PaCa-2. f, Illustration of migration inhibition after treated by BIVA probe. g The image of the migrated cells after treatment of PBS (blank), M2, M4, and M1. Scale bar: 100 μm. h The pie diagram of quantitative statistical calculation of the migrated cells (blue) in different groups. The blank control was set as 100% migrated cells.
In order to further understand the contribution of the active targeting and AIR effect during locating of the cells, the cell transwell experiment was used to quantitively evaluate interference of the cell migration based on M1, M2, and M4 (Fig. 5f). As expected, untreated cells were easy to migrate to the lower chamber, while the cells treated with active targeting molecule M2 and assembled molecule M4, the migration of cell were reduced. Under the same molar concentration, the M1 treatment group had the most inference on cell migration (Fig. 5g). […] Based on those results, we speculate M1 can be more enriched in the tumor site and form fibers through assembly to inhibit tumor cell migration compared to M2 and M4 which have no ability to target and adhere on the cell membrane.
Transwell migration assay occurred in chemotaxis chambers containing 24 wells. […] Bottom chambers contained DMEM medium containing 10% FBS. After 24 h of treatment with M1, M2, and M4 (150 μM), we fixed cells using 4% paraformaldehyde and stained with 0.25% crystal violet solution. The stained cells were counted using a microscope.
Supplementary Fig. 20∣ The quantitative results of the migrated cells after treatment of PBS (blank), M2, […] and
M1 (Fig 5g). The mean of results of fiveparallel experiments is shown and data were expressed as mean ± SD (n=5).
pM1 = 5.85E-06, pM2 = 5.94E-05, pM4 = 3.16 E-04, Statisticalanalysis: one-way ANOVA followed by post hoc Tukey’s
(1 picture or pasted object on this page, not shown here)

[3] = tested on: MIA PaCa-2 cells; experiment: Cellular imaging (CLSM) of FITC-labelled molecules; assay type: cell-based; conditions: FITC-labelled molecules, MIA PaCa-2 cells, 1 h incubation, CLSM
Procedure: To further confirm this hypothesis, the M1 and M2 were equally labeled by FITC for cell imaging (Fig. 5b). To simulate the dynamic physiological condition, the cell culture medium was replaced every 15 min. After 1 h of incubation with M1 and M2 at the same molecule molar concentration, there occurred significant differences between the two molecules (Fig. 5c). […] The huge difference can be explained by the fact that the secondary assembly rate broke the balance between the targeted ligand and receptor, and thus tended to a stable assembly interaction. The retention efficiency depended on the assembly rate constant Ka. Meanwhile, the rapid dynamic assembly of BIVA probe in situ around the cell membrane, and contributed to the efficient formation and retention of nanofibers on the cell profile. When the incubation time was delayed up to 2 h, some components could be endocytosed into the cells, but most of them were found on the membranes (Supplementary Fig. 18). […] Then, the isolated cells were collected and lysed, the extracted cell membrane fragments were stained with ThT. […] In order to verify the influence of the addition of the targeting module of the probe molecules, we explored the imaging of R-M1 and M4 on cells.
as §1
MIA PaCa-2 cells were digested with trypsin, counted with cell counting plate, diluted to 1 × 10^4 with DMEM medium, and 1 mL to 1 cm diameter confocal microscope dish was taken. The cells were incubated in […] atmosphere for 24 h. The medium containing M1 and M2 (50 μM) was replaced and incubated with the cells for 2 h. The cells were washed with PBS for 3 times. CLSM (Zeiss 710) was used to image cells under 40 × objective, excitation = 488 nm, and emission >520 nm.
Supplementary Fig. 19 ∣ CLSM images of Miapaca-2 cells treated with different molecules or M1 under different conditions. […]

## mPEG-AGGKLVFFGCGRGD
[1]
  not cleaved: no change of the retention peak

## mPEG-GPAKLVFFGC(IR783)GDTG [M4, the non-targeting molecule]
[2]
  emigrate (migrated cells relative to blank): 0.5282
[3]
  fluorescence signal on the cell membrane: only a small amount of fluorescence signal

## mPEG-GPAKLVFFGCGRGD
[1]
  cleaved bond: Pro-Ala
